Results reported in ChEMBL document CHEMBL1201862, “PubChem BioAssay data set” (2004).
Activity calls are given as the source filed them.

Tests used:
[1] = biological target: T1, Lysine-specific demethylase 4C (Homo sapiens, UniProt Q9H3R0); experiment: GASC-1 (JMJD2C) histone demethylase inhibitors, dose response, biochemical, DELFIA europium, cherry-picked samples (AID 488835); assay type: functional
T1 sequence (Q9H3R0 whole entry): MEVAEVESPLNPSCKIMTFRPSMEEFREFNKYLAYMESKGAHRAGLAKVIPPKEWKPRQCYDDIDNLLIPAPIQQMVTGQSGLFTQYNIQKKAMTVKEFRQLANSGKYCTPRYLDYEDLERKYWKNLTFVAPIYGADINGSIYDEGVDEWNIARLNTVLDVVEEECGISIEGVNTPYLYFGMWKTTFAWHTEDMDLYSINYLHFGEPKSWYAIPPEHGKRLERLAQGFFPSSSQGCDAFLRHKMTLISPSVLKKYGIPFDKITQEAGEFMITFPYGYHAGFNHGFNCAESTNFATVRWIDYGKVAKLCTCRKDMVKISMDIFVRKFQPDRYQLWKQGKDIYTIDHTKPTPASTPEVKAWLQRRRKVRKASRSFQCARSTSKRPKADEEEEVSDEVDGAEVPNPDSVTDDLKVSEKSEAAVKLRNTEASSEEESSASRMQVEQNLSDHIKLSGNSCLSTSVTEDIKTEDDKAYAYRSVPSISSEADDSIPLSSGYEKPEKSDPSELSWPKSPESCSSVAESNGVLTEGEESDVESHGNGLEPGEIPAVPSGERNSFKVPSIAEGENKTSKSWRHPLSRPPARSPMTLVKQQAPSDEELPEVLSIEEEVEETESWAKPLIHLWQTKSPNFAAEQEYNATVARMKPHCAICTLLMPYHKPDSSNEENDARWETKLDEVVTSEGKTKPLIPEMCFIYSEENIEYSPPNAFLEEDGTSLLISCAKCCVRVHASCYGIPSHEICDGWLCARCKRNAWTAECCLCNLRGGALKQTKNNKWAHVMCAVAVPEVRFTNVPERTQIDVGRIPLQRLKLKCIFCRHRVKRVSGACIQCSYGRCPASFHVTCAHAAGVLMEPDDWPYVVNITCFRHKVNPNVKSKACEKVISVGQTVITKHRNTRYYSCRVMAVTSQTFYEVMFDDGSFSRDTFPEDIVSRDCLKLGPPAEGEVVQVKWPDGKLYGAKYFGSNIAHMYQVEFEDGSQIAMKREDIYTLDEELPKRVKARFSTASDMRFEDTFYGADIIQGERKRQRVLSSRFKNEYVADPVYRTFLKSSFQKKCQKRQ

[2] = cells; assay type: functional, cell-based
[3] = biological target: Peroxisome proliferator-activated receptor gamma/Nuclear receptor coactivator 1 (Homo sapiens, UniProt P37231); experiment: (§1) TR-FRET dose response biochemical High Throughput Screening assay for agonists of the steroid receptor coactivator 1 (SRC-1) recruitment by the peroxisome proliferator-activated receptor gamma (PPAR gamma): non-selective agonists. [Related pubchem assays (depositor defined):AID1300, AID1808, AID504735, AID631]; assay type: protein assay
Chain of Peroxisome proliferator-activated receptor gamma/Nuclear receptor coactivator 1 (P37231 whole entry): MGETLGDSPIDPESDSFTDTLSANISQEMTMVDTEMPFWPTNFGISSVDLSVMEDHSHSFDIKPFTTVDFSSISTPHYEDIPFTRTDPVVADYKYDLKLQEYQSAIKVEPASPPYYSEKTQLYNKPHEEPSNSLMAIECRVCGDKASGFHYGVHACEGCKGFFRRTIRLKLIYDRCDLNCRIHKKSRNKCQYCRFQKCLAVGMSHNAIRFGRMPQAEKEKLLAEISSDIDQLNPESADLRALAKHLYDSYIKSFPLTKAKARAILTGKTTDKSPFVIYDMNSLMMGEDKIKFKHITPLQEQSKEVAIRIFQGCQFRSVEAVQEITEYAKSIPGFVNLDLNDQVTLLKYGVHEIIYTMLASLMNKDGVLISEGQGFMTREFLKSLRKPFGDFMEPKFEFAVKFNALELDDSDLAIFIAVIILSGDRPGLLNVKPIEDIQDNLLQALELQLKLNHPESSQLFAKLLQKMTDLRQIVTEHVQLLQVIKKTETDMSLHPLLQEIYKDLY
Chain of Peroxisome proliferator-activated receptor gamma/Nuclear receptor coactivator 1 (Q15788 whole entry, further chain): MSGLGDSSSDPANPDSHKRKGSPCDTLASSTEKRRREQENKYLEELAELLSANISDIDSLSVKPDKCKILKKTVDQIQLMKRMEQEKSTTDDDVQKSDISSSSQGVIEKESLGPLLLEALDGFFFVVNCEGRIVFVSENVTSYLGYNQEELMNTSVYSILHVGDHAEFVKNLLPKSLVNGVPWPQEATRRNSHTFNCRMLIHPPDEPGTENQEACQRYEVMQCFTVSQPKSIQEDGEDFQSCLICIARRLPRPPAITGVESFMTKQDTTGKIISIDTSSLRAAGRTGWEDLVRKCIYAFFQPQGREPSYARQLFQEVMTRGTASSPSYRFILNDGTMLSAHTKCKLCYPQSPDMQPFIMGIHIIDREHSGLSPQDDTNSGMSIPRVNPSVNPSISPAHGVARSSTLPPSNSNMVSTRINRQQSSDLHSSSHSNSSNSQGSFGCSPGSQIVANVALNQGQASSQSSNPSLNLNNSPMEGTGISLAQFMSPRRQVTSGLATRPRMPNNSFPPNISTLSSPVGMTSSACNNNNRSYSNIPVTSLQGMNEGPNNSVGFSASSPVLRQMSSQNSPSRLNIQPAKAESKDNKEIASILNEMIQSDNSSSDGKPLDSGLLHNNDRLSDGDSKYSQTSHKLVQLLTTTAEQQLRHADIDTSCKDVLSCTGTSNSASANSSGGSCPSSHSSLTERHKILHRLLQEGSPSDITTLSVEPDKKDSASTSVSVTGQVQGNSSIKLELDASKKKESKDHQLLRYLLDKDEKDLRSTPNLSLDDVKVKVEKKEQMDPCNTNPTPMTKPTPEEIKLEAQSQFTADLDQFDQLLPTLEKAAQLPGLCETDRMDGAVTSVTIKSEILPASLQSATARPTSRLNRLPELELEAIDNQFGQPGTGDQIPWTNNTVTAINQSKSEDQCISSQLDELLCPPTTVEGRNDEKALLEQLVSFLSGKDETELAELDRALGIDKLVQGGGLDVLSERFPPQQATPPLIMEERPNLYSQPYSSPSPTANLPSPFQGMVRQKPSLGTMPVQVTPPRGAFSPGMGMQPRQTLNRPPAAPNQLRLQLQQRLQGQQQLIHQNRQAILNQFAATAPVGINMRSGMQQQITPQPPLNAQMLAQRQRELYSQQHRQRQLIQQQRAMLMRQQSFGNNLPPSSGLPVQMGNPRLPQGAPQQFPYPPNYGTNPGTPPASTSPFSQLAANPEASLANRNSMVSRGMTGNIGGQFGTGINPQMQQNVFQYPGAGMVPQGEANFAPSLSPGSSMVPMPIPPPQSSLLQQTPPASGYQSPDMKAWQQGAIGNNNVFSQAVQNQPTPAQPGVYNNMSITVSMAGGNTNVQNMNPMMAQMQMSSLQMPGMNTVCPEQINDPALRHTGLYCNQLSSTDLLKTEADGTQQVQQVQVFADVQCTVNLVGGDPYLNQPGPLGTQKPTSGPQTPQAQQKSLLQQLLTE

[4] = biological target: Peroxisome proliferator-activated receptor gamma/Nuclear receptor coactivator 3 (Homo sapiens, UniProt P37231); experiment: as §1, with “3 (SRC-3)” for “1 (SRC-1)”, “assays: 1301 (Confirmation screen.), 1048 (Primary screen.)]” for “assays (depositor defined):AID1300, AID1808, AID504735, AID631]”; assay type: functional
Chain of Peroxisome proliferator-activated receptor gamma/Nuclear receptor coactivator 3 (P37231 whole entry): as the sequence (P37231 whole entry) above
Chain of Peroxisome proliferator-activated receptor gamma/Nuclear receptor coactivator 3 (Q9Y6Q9 whole entry, further chain): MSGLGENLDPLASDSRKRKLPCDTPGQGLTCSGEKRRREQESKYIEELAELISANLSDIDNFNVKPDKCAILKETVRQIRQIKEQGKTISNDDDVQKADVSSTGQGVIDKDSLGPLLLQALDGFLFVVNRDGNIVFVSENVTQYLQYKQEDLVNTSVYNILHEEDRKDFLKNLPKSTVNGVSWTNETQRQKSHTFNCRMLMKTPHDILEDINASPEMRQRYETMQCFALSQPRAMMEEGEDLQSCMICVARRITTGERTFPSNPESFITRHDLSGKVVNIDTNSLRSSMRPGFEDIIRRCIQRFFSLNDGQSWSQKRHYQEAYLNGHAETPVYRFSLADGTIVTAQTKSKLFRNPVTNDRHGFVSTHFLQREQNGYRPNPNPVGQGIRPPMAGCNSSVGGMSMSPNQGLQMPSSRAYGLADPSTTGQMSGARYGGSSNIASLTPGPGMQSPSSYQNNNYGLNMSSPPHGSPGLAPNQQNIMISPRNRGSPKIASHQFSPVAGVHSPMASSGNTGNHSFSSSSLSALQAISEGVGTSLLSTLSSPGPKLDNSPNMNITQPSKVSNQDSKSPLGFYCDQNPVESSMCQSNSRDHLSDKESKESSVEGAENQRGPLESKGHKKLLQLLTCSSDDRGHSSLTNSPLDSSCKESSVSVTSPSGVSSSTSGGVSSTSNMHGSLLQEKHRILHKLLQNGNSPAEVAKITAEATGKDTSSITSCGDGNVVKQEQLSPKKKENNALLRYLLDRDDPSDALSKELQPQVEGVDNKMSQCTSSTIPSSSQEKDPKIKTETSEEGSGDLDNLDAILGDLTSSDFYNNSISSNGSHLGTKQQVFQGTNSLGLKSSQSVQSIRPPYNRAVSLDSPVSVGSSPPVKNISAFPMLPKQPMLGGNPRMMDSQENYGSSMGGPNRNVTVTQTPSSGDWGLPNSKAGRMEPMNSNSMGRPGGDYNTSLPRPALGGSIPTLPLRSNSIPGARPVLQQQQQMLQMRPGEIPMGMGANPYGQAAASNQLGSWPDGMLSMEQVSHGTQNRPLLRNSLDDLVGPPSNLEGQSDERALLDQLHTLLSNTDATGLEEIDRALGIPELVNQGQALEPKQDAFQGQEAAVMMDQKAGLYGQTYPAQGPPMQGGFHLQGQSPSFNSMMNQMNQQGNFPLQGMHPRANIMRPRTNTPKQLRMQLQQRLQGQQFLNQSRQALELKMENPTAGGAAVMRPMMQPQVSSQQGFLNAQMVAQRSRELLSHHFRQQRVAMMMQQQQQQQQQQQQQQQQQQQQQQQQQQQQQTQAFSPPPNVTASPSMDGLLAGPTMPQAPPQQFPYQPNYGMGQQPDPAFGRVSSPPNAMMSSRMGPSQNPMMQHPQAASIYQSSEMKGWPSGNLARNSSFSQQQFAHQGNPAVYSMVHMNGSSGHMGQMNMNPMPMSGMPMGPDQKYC

[5] = biological target: Peroxisome proliferator-activated receptor gamma/Nuclear receptor coactivator 2 (Homo sapiens, UniProt P37231); experiment: TR-FRET dose response biochemical High Throughput Screening assay for agonists of the steroid receptor coactivator 2 (SRC-2) recruitment by the peroxisome proliferator-activated receptor gamma (PPAR gamma): non-selective agonists. [Related pubchem assays: 1297, 1032 ]; assay type: functional
[6] = biological target: T2, Microphthalmia-associated transcription factor (Homo sapiens, UniProt O75030); experiment: TRPM1 promoter luciferase signal decrease, dose response, MITF inhibitor project, cell-based, SK-MEL-5, cherry-picked, set 3 (AID 493073); assay type: functional
T2 sequence (O75030 whole entry): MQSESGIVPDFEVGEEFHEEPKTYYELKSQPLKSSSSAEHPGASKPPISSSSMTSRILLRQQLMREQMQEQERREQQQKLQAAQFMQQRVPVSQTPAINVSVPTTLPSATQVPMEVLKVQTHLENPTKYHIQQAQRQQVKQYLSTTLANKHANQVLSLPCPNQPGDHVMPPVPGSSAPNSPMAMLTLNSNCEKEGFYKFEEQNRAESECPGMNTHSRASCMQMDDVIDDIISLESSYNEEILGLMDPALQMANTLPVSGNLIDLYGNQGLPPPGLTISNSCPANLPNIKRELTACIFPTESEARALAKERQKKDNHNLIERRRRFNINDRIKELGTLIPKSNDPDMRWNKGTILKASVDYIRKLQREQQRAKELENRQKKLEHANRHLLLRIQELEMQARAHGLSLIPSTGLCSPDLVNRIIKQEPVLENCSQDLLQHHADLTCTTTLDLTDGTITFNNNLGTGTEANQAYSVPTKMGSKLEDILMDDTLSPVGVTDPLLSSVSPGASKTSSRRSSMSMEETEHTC

[7] = test system: A-375; experiment: MITF: Counter assay: A375 proliferation Measured in Cell-Based System Using Plate Reader - 2084-03_Inhibitor_Dose_DryPowder_Activity. [Related pubchem assays (depositor defined):AID488944]; assay type: functional; conditions: Homo sapiens
[8] = biological target: Cytochrome P450 3A4 (Homo sapiens, UniProt P08684);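 note: CYP3A4 tested as one member of a cytochrome P450 panel screen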
Chain of Cytochrome P450 3A4 (P08684 whole entry): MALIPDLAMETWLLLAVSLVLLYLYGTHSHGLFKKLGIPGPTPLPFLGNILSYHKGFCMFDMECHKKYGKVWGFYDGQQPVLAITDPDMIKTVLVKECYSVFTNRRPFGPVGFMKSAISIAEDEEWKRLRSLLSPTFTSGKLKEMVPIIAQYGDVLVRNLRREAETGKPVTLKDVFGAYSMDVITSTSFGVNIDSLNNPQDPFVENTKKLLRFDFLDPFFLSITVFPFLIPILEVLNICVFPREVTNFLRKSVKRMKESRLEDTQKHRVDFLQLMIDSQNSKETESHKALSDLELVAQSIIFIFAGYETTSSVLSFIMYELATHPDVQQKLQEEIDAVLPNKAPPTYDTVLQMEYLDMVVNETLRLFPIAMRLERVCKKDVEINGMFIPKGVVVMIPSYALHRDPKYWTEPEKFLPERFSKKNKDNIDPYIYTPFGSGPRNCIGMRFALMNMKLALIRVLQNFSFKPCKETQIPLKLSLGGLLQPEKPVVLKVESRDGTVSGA

[9] = biological target: T3, Cytochrome P450 1A2 (Homo sapiens, UniProt P05177);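 note: PubChem cytochrome P450 panel assay, CYP1A2 panel member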
T3 sequence (P05177 whole entry): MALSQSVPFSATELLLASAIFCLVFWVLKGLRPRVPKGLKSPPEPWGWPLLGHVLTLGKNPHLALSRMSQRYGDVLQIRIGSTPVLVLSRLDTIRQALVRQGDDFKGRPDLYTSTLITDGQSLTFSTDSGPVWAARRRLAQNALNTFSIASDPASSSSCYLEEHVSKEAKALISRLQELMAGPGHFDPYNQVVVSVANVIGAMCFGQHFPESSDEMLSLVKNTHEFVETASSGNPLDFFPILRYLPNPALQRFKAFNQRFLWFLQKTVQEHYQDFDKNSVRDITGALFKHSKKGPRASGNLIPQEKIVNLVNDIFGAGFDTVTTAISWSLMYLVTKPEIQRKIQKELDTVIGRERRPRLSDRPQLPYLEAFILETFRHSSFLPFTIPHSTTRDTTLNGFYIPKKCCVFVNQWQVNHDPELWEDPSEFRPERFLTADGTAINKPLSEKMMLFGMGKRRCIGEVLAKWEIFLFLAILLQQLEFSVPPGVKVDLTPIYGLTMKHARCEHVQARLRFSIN

[10] = test system: HEK293; experiment: HEK cell cytotoxicity by LDH release, dose response, cytotoxicity control for IDE activator project, fluorescence, HEK cells (AID 588440); assay type: functional, cell-based; conditions: Homo sapiens;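 note: cytotoxicity by LDH release measuring loss of membrane integrity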
[11] = biological target: T4, Insulin-degrading enzyme (Homo sapiens, UniProt P14735); experiment: activators of recombinant IDE enzyme, dose response, counter-screen for IDE activator project, biochemical, fluorescence polarization (AID 588681)
T4 sequence (P14735 whole entry): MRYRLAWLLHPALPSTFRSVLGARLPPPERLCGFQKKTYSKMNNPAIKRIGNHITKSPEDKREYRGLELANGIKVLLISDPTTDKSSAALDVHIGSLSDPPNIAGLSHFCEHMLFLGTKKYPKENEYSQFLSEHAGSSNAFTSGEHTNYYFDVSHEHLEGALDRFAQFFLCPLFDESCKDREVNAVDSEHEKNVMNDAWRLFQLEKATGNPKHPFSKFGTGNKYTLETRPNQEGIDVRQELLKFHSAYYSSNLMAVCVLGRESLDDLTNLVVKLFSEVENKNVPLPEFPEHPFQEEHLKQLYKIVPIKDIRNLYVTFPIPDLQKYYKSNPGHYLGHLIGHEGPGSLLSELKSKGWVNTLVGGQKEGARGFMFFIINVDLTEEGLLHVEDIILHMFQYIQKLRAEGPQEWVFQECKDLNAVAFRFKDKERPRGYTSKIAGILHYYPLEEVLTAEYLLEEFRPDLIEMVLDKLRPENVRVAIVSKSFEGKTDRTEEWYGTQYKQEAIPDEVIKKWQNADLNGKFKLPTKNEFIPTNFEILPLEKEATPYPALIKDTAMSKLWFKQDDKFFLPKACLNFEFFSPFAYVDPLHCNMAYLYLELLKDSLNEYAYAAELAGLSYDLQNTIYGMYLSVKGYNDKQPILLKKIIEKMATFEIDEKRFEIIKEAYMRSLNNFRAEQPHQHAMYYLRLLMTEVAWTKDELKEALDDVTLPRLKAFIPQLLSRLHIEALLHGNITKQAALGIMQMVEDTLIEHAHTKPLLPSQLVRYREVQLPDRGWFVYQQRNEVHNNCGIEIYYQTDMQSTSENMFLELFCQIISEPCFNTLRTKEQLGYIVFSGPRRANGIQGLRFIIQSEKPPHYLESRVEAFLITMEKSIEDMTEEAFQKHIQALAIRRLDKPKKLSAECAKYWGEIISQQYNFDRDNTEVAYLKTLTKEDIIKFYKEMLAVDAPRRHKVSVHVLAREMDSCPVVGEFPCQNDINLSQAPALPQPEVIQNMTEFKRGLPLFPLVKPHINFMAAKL

[12] = biological target: T4, Insulin-degrading enzyme; experiment: activators of endogenous IDE in HEK cells, dose response, cell-based, fluorescence polarization (AID 588439); assay type: functional
[13] = test system: HEK293; experiment: optical interference in Abeta FP readout, dose response, artefact control for IDE activator project, biochemical, fluorescence polarization (AID 588442); assay type: functional, cell-based; conditions: Homo sapiens

COC(=O)[C@@H](N)Cc1ccc(O)c(O)c1
AC50 [1]: 11.5 µM (active)

COc1ccc(-c2csc(NNC3=NCCCCC3)n2)cc1
EC50 [2]: > 350 µM (not active) | AC50 [1]: 7.08 µM (active)

CCn1c(=O)cc(SCC(=O)NCc2ccc3c(c2)OCO3)c2ccccc21
EC50 [3]: > 79.4 µM (inactive) | EC50 [4]: > 79.4 µM (not active) | EC50 [5]: > 79.4 µM (not active)

COCCCNC(=O)C1CCN(C(=O)Nc2ccc(Cl)cc2)CC1
AC50 [1]: 44.8 µM (active)

CCN1CCN(C2=C(NS(=O)(=O)c3ccc(C)cc3)C(=O)c3ccccc3C2=O)CC1
AC50 [6]: 4.18 µM (active) | AC50 [7]: 36.6 µM (active)

Cc1ccc2nc(SCc3nnc(-c4ccccc4[N+](=O)[O-])o3)c(C#N)cc2c1
AC50 [8]: inconclusive | AC50 [9]: 1.58 µM (inconclusive)

NC(CO)c1cn([C@@H](CCC(=O)O)C(=O)N2CCNCC2)nn1 (stereo not given in full)
IC50 [10]: > 89.2 µM (inactive) | EC50 [11]: > 54.7 µM (inactive) | EC50 [12]: > 54.7 µM (inactive) | EC50 [13]: > 55.9 µM (inactive)
